Patent US4492693A, “Benzothienylglycyl cephalosporin derivatives” (priority 1983, dated 1985)
Converted amounts (≈) assume the structure as drawn. Read-outs that look alike come from different tables or passages of the source.

Legend:
Assay in all cases: Agar Dilution MIC (Table I)
Format in all cases: cell-based
Staph. aureus = conditions: Staphylococcus aureus
Staph. epi = conditions: read-out: Agar Dilution MIC
Strep. A = conditions: strain C203; read-out: Agar Dilution MIC
Strep. PN = conditions: strain PARK
Strep. D = conditions: for MIC: read-out: Agar Dilution MIC
Source text: A typical and preferred compound provided by this invention is 7-(3-benzothienyl)glycylamido-3-methyl-3-cephem-4-carboxylic acid, the compound illustrated in Example 9. The antibacterial activity of this compound has been determined in standard in vitro agar dilution assays against a variety of gram positive and gram negative microorganism. The following Tables present typical minimum inhibitory concentrations (MIC's) in μg/ml for several compounds of the invention when evaluated against the indicated microorganisms. MIC's for several known compounds are also presented for comparison.
Agar Dilution MIC (μg/ml)

H. influ. = conditions: read-out: Agar Dilution MIC
E. coli = conditions: Escherichia coli
Klebsiella = conditions: for MIC: Klebsiella, read-out: Agar Dilution MIC
[1] = read-out: Agar Dilution MIC, strain S13E
[2] = strain V41, read-out: Agar Dilution MIC
[3] = strain X1.1, read-out: Agar Dilution MIC
[4] = strain X400, read-out: Agar Dilution MIC

`CC1=C(C(=O)O)N2C(=O)C(NC(=O)[C@H](N)c3csc4cccc(Cl)c34)C2SC1` (stereo partly drawn) [Ex. 36B, D-7-(4-chloro-3-benzothienyl)glycylamido-3-methyl-3-cephem-4-carboxylic acid] showed an MIC (Staph. aureus; [1]) of 128 µg/mL (≈ 292 µM), an MIC (Staph. aureus; [2]) of 128 µg/mL (≈ 292 µM) and an MIC (Staph. aureus; [3]) of 16 µg/mL (≈ 36.5 µM). It also gave an MIC (Staph. aureus; [4]) of 128 µg/mL (≈ 292 µM), an MIC (Staph. epi) of 128 µg/mL (≈ 292 µM) and an MIC (Staph. epi; strain 222) of 8 µg/mL (≈ 18.3 µM). The MIC (Strep. A) was 8 µg/mL (≈ 18.3 µM), the MIC (Strep. PN) was 8 µg/mL (≈ 18.3 µM) and the MIC (Strep. D) was 128 µg/mL (≈ 292 µM). The “Agar Dilution MIC” value (Strep. D; strain 2041) was 128 µg/mL, the MIC (H. influ.) was 128 µg/mL (≈ 292 µM) and the MIC (H. influ.; strain 76) was 16 µg/mL (≈ 36.5 µM). For the same compound, the MIC (E. coli; strain EC14) was 128 µg/mL (≈ 292 µM), the MIC (E. coli; strain N10) was 128 µg/mL (≈ 292 µM) and the MIC (E. coli; strain TEM) was 128 µg/mL (≈ 292 µM). For the same compound, the MIC (Klebsiella) was 128 µg/mL (≈ 292 µM), the “Agar Dilution MIC” value (Klebsiella; strain KAE) was 128 µg/mL and the “Agar Dilution MIC” value (Klebsiella; strain X68) was 128 µg/mL.

For `CC1=C(C(=O)O)N2C(=O)C(NC(=O)[C@@H](N)c3csc4cc(Cl)ccc34)C2SC1` (stereo partly drawn) [Ex. 37A, L-7-(6-Chloro-3-benzothienyl)glycylamido-3-methyl-3-cephem-4-carboxylic acid], the MIC (Staph. aureus; [1]) was 64 µg/mL (≈ 146 µM), the MIC (Staph. aureus; [2]) was 64 µg/mL (≈ 146 µM) and the MIC (Staph. aureus; [3]) was 16 µg/mL (≈ 36.5 µM). It also gave an MIC (Staph. aureus; [4]) of 128 µg/mL (≈ 292 µM), an MIC (Staph. epi; strain 222) of 32 µg/mL (≈ 73.1 µM) and an MIC (Staph. epi; strain EPI1) of 64 µg/mL (≈ 146 µM). For the same compound, the MIC (Strep. A) was 4 µg/mL (≈ 9.13 µM), the MIC (Strep. PN) was 16 µg/mL (≈ 36.5 µM) and the MIC (Strep. D; strain 2041) was 128 µg/mL (≈ 292 µM). The MIC (Strep. D; strain X66) was 128 µg/mL (≈ 292 µM), the MIC (H. influ.; strain 76) was 2 µg/mL (≈ 4.57 µM) and the MIC (H. influ.; strain C.L.) was 128 µg/mL (≈ 292 µM). For the same compound, the MIC (E. coli; strain EC14) was 128 µg/mL (≈ 292 µM), the MIC (E. coli; strain N10) was 128 µg/mL (≈ 292 µM) and the MIC (E. coli; strain TEM) was 128 µg/mL (≈ 292 µM). It also gave an MIC (Klebsiella; strain KAE) of 128 µg/mL (≈ 292 µM), an MIC (Klebsiella; strain X26) of 64 µg/mL (≈ 146 µM) and an MIC (Klebsiella; strain X68) of 128 µg/mL (≈ 292 µM).

In the case of `CC1(C)S[C@@H]2[C@H](NC(=O)[C@H](N)c3ccccc3)C(=O)N2[C@H]1C(=O)O` [Ampicillin, reference compound], the MIC (Strep. D; strain X66) is reported as 4 µg/mL (≈ 11.4 µM), the MIC (H. influ.; strain 76) is reported as 16 µg/mL (≈ 45.8 µM) and the MIC (H. influ.; strain C.L.) is reported as 0.5 µg/mL (≈ 1.43 µM). For the same compound, the MIC (E. coli; strain EC14) was 4 µg/mL (≈ 11.4 µM) and the MIC (E. coli; strain N10) was 8 µg/mL (≈ 22.9 µM).

`CC1=C(C(=O)O)N2C(=O)C(NC(=O)[C@H](N)c3csc4cc(Cl)ccc34)C2SC1` (stereo partly drawn) [Ex. 37B, D-7-(6-chloro-3-benzothienyl)glycylamido-3-methyl-3-cephem-4-carboxylic acid] was tested, and the MIC (Staph. aureus; [2]) was 8 µg/mL (≈ 18.3 µM), the MIC (Staph. aureus; [3]) was 1 µg/mL (≈ 2.28 µM) and the MIC (Staph. aureus; [4]) was 16 µg/mL (≈ 36.5 µM). It also gave an MIC (Staph. epi; strain 222) of 2 µg/mL (≈ 4.57 µM), an MIC (Staph. epi; strain EPI1) of 4 µg/mL (≈ 9.13 µM) and an MIC (Strep. A) of 0.5 µg/mL (≈ 1.14 µM). For the same compound, the MIC (Strep. PN) was 1 µg/mL (≈ 2.28 µM), the MIC (Strep. D; strain 2041) was 32 µg/mL (≈ 73.1 µM) and the MIC (Strep. D; strain X66) was 128 µg/mL (≈ 292 µM). For the same compound, the MIC (H. influ.; strain 76) was 1 µg/mL (≈ 2.28 µM), the MIC (H. influ.; strain C.L.) was 8 µg/mL (≈ 18.3 µM) and the MIC (E. coli; strain EC14) was 128 µg/mL (≈ 292 µM). For the same compound, the MIC (E. coli; strain N10) was 128 µg/mL (≈ 292 µM), the MIC (E. coli; strain TEM) was 128 µg/mL (≈ 292 µM) and the MIC (Klebsiella; strain KAE) was 128 µg/mL (≈ 292 µM). The MIC (Klebsiella; strain X26) was 4 µg/mL (≈ 9.13 µM) and the MIC (Klebsiella; strain X68) was 128 µg/mL (≈ 292 µM).

`CC1=C(C(=O)O)N2C(=O)C(NC(=O)[C@@H](N)c3csc4cccc(Cl)c34)C2SC1` (stereo partly drawn) [Ex. 36A, L-7-(4-chloro-3-benzothienyl)glycylamido-3-methyl-3-cephem-4-carboxylic acid] was tested, and the MIC (Staph. aureus; [1]) was 128 µg/mL (≈ 292 µM), the MIC (Staph. aureus; [2]) was 128 µg/mL (≈ 292 µM) and the MIC (Staph. aureus; [3]) was 64 µg/mL (≈ 146 µM). For the same compound, the MIC (Staph. aureus; [4]) was 128 µg/mL (≈ 292 µM), the MIC (Staph. epi) was 128 µg/mL (≈ 292 µM) and the MIC (Staph. epi; strain 222) was 64 µg/mL (≈ 146 µM). The MIC (Strep. A) was 16 µg/mL (≈ 36.5 µM), the MIC (Strep. PN) was 8 µg/mL (≈ 18.3 µM) and the MIC (Strep. D) was 128 µg/mL (≈ 292 µM). The “Agar Dilution MIC” value (Strep. D; strain 2041) was 128 µg/mL, the MIC (H. influ.) was 128 µg/mL (≈ 292 µM) and the MIC (H. influ.; strain 76) was 4 µg/mL (≈ 9.13 µM). The MIC (E. coli; strain EC14) was 128 µg/mL (≈ 292 µM), the MIC (E. coli; strain N10) was 128 µg/mL (≈ 292 µM) and the MIC (E. coli; strain TEM) was 128 µg/mL (≈ 292 µM). The MIC (Klebsiella) was 128 µg/mL (≈ 292 µM), the “Agar Dilution MIC” value (Klebsiella; strain KAE) was 128 µg/mL and the “Agar Dilution MIC” value (Klebsiella; strain X68) was 128 µg/mL.
